Experimental data as given in the Deep4Chem optical property database.

Experiment: solvent given as SMILES

Question: With `C[Si]1(C)O[Si](C)(C)c2cc3nc4ccc([N+](=O)[O-])cc4c(-c4ccccc4)c3cc2[Si](C)(C)O1` as the compound, how does the absorption maximum (in ClCCl) read?
Answer: 376 nm

Question: With `COc1c2ccccc2c(OC)c2c(C#CC(C)(C)C)c3cc4ccccc4cc3c(C#CC(C)(C)C)c12` as the compound, how does the absorption maximum (in ClCCl) read?
Answer: 672 nm

Question: Which absorption maximum (in C1CCOC1) does the source give for `CC(C)(C)c1ccc(-c2nc(-c3ccc(C(C)(C)C)cc3)nc(-c3cc(C#N)c(-n4c5ccccc5c5c6oc7ccccc7c6ccc54)c(C#N)c3)n2)cc1` here?
Answer: 397.48 nm

Question: Which absorption maximum (in ClCCl) does the source give for `CN(C)c1cc(-c2ccccc2)cc2ccccc12` here?
Answer: 318 nm

Question: Which absorption maximum (in ClC(Cl)Cl) does the source give for `N#Cc1nc(N(Cc2ccc(Cl)cc2)Cc2ccc(Cl)cc2)c(C#N)nc1N(Cc1ccc(Cl)cc1)Cc1ccc(Cl)cc1` here?
Answer: 485 nm

Question: Which absorption maximum (in ClCCl) does the source give for `S=P1(c2ccccc2)c2cccc3c4c5ccccc5c5ccccc5c4c4ccc1n4c23` (centres undefined) here?
Answer: 422 nm

Question: For `C(=C\c1ccccc1)/c1ccccc1`, which absorption maximum (in CC#N) is on record?
Answer: 307 nm

Question: With `COC(=O)c1ccc(/C=C2\N=C(c3ccccc3)OC2=O)cc1` as the compound, how does the absorption maximum (in C1COCCO1) read?
Answer: 370 nm

Question: With `COC(=O)c1nc2c(N(C)C)nc(N)nc2n1Cc1ccccc1` as the compound, how does the absorption maximum (in C1COCCO1) read?
Answer: 334 nm

Question: What about the absorption maximum (in CC#N) of the same compound?
Answer: 332 nm

Question: What about the absorption maximum (in CO) of the same compound?
Answer: 331 nm

Question: What about the absorption maximum (in ClCCl) of the same compound?
Answer: 330 nm

Question: With `c1ccc(N(c2ccccc2)c2ccc(-c3ncc(-c4cnc(-c5ccc(N(c6ccccc6)c6ccccc6)cc5)s4)s3)cc2)cc1` as the compound, how does the absorption maximum (in CO) read?
Answer: 422 nm

Question: Which absorption maximum (in ClCCl) does the source give for `CC(C)(C)c1cc(-c2c3cc(c(-c4cc(C(C)(C)C)cc(C(C)(C)C)c4)c4ccc([nH]4)c(-c4ccc([N+](=O)[O-])cc4)c4nc(c(-c5ccc([N+](=O)[O-])cc5)c5ccc2[nH]5)C=C4)N=C3)cc(C(C)(C)C)c1` here?
Answer: 726 nm

Question: For `CCCCCCCCCC[n+]1cc2ccc3c[n+](CCCCCCCCCC)cc4ccc(c1)c2c34`, which absorption maximum (in CC#N) is on record?
Answer: 418 nm

Question: Which absorption maximum (in ClCCl) does the source give for `COCCOCCOCCOCC(COCCOCCOCCOC)Oc1cc(/C=C/c2ccc(/C=C(\C#N)c3ccc(C(F)(F)F)cc3)cc2)c(OC(COCCOCCOCCOC)COCCOCCOCCOC)cc1/C=C/c1ccc(/C=C(\C#N)c2ccc(C(F)(F)F)cc2)cc1` here?
Answer: 439 nm

Question: For `CCCCCCCCCCCCN1C(=O)c2c(c3ccc4cc(-c5ccc(C(F)(F)F)cc5)c(OC)cc4c3c3c2ccc2cc(-c4ccc(C(F)(F)F)cc4)c(OC)cc23)C1=O`, which absorption maximum (in ClCCl) is on record?
Answer: 427 nm

Question: For `CCCN1c2ccccc2Sc2cc(C3=C4C=CC=[N+]4[B-](F)(F)n4cccc43)ccc21`, which absorption maximum (in ClCCl) is on record?
Answer: 499 nm

Question: With `c1ccc(-c2nc3nc4ccccc4nc3n2-c2ccccc2)cc1` as the compound, how does the absorption maximum (in CC#N) read?
Answer: 348 nm

Question: For `C[Si](C)(C)C#C[Si](c1c2ccccc2cc2ccccc12)(c1c2ccccc2cc2ccccc12)c1c2ccccc2cc2ccccc12`, which absorption maximum (in ClC(Cl)Cl) is on record?
Answer: 404 nm

Question: What does the source list for `Cc1oc(-c2ccccc2)nc1C(=O)O`?
Answer: absorption maximum (in C1CCCCC1): 269 nm; absorption maximum (in CC#N): 267 nm; absorption maximum (in CCO): 273 nm; absorption maximum (in CCOC(C)=O): 267 nm; absorption maximum (in O): 273 nm

Question: For `CN(C)c1ccc(/C=C/c2ncccn2)cc1`, which absorption maximum (in ClCCl) is on record?
Answer: 379 nm

Question: With `CN(C)/C=N\c1ccc2c3c(cccc13)C(=O)c1ccccc1-2` as the compound, how does the absorption maximum (in C1CCOC1) read?
Answer: 459 nm

Question: What about the absorption maximum (in CCCCCC) of the same compound?
Answer: 437 nm

Question: What about the absorption maximum (in CCO) of the same compound?
Answer: 471 nm

Question: What about the absorption maximum (in CCOC(C)=O) of the same compound?
Answer: 459 nm

Question: And the absorption maximum (in CN(C)C=O)?
Answer: 479 nm

Question: And the absorption maximum (in CO)?
Answer: 470 nm

Question: And the absorption maximum (in Cc1ccccc1)?
Answer: 454 nm

Question: What about the absorption maximum (in ClC(Cl)(Cl)Cl) of the same compound?
Answer: 448 nm

Question: And the absorption maximum (in ClC(Cl)Cl)?
Answer: 464 nm

Question: What about the absorption maximum (in ClCCl) of the same compound?
Answer: 467 nm

Question: And the absorption maximum (in c1ccccc1)?
Answer: 456 nm

Question: For `CC(=O)Nc1ccc2c(c1)c(=O)c1ccccc1n2CCCCCC(=O)O`, which absorption maximum (in O) is on record?
Answer: 398 nm

Question: Which absorption maximum (in C1CCCCC1) does the source give for `CN(C)c1ccc(C(=O)Nc2ccc([N+](=O)[O-])cc2)cc1` here?
Answer: 337 nm

Question: And the absorption maximum (in C1CCOC1)?
Answer: 353 nm

Question: And the absorption maximum (in CC#N)?
Answer: 354 nm

Question: And the absorption maximum (in CCOCC)?
Answer: 345 nm

Question: With `CC1(C)C(/C=C/C=C/C=C/C=C2/N(c3ccc(S(=O)(=O)[O-])cc3)c3ccc(S(=O)(=O)[O-])cc3C2(C)C)=[N+](c2ccc(S(=O)(=O)[O-])cc2)c2ccc(S(=O)(=O)[O-])cc21` as the compound, how does the absorption maximum (in CO) read?
Answer: 759 nm

Question: What about the absorption maximum (in O) of the same compound?
Answer: 754 nm

Question: For `C(=N\c1ccc(-c2cn3nc(-c4cccs4)sc3n2)cc1)/c1ccc(N(c2ccccc2)c2ccccc2)cc1`, which absorption maximum (in ClC(Cl)Cl) is on record?
Answer: 390 nm

Question: With `CCN(CC)c1ccc(C=Cc2nc3nc4ccccc4nc3s2)cc1` as the compound, how does the absorption maximum (in CO) read?
Answer: 490 nm

Question: Which absorption maximum (in ClCCl) does the source give for `Cc1c(C(=O)c2ccc3c4cccc5cccc(c6cccc2c63)c54)c2ccc3cccc4c5cccc6ccc1c(c65)c2c34` here?
Answer: 468 nm

Question: For `CCN(CC)c1ccc([N+]2=Cc3ccc4c5c(ccc4c3O[B-]2(c2ccccc2)c2ccccc2)C=[N+](c2ccc(N(CC)CC)cc2)[B-](c2ccccc2)(c2ccccc2)O5)cc1`, which absorption maximum (in Cc1ccccc1) is on record?
Answer: 558 nm

Question: And the absorption maximum (in ClCCl)?
Answer: 552 nm

Question: With `O=P(c1ccccc1)(c1ccccc1)n1c2ccccc2c2cc(-n3c4ccccc4c4ccccc43)ccc21` as the compound, how does the absorption maximum (in C1CCOC1) read?
Answer: 340 nm

Question: With `c1ccc(C[n+]2ccc(-c3cc[n+](Cc4ccccc4)cc3)cc2)cc1` as the compound, how does the absorption maximum (in CC#N) read?
Answer: 260 nm

Question: For `CCN(CC)c1ccc(-c2nc(Oc3ccc(-c4nc5cc([N+](=O)[O-])ccc5[nH]4)cc3)nc(Oc3ccc(-c4nc5cc([N+](=O)[O-])ccc5[nH]4)cc3)n2)cc1`, which absorption maximum (in CN(C)C=O) is on record?
Answer: 383 nm

Question: What does the source list for `O=C1c2cccc3cc4ccccc4c(c23)C(=O)N1Cc1ccccn1`?
Answer: absorption maximum (in C1CCOC1): 432 nm; absorption maximum (in CCCCCC): 427 nm; absorption maximum (in CCO): 436 nm; absorption maximum (in Cc1ccccc1): 435 nm; absorption maximum (in ClCCl): 437 nm

Question: With `Nc1cc2nc3cc(Br)c(Br)cc3nc2cc1N` as the compound, how does the absorption maximum (in CCO) read?
Answer: 442 nm

Question: With `Cc1c(C)c2c3ccccc3[nH]c2c2ccccc12` as the compound, how does the absorption maximum (in ClCCl) read?
Answer: 302 nm

Question: With `c1ccc(N(c2ccccc2)c2ccc(-c3ncc(-c4cccs4)s3)cc2)cc1` as the compound, how does the absorption maximum (in CO) read?
Answer: 387 nm

Question: Which results are given for `Cc1c2ccccc2c(C2=C3C=CC=[N+]3[B-](F)(F)n3cccc32)c2ccccc12`?
Answer: absorption maximum (in CC#N): 502 nm; absorption maximum (in CCCCCC): 504 nm; absorption maximum (in CCO): 503 nm; absorption maximum (in CN(C)C=O): 506 nm; absorption maximum (in Cc1ccccc1): 508 nm; absorption maximum (in ClCCl): 506 nm

Question: For `CC(C)(C)C1CCC(=CS/C=C/c2ccc(-c3ccc(/C=C/SC=C4CCC(C(C)(C)C)CC4)cc3)cc2)CC1` (centres undefined), which absorption maximum (in ClCCl) is on record?
Answer: 350 nm

Question: With `CC(C)(C)c1ccc(-c2nc3c4ccccc4c4ccccc4c3n2-c2ccc(C(C)(C)C)cc2)cc1` as the compound, how does the absorption maximum (in C1CCOC1) read?
Answer: 314 nm

Question: What about the absorption maximum (in C1COCCO1) of the same compound?
Answer: 315 nm

Question: And the absorption maximum (in CC#N)?
Answer: 310 nm

Question: And the absorption maximum (in CCCCCC)?
Answer: 315 nm

Question: And the absorption maximum (in CCCCOCCCC)?
Answer: 315 nm

Question: What about the absorption maximum (in CCN(CC)CC) of the same compound?
Answer: 316 nm

Question: What about the absorption maximum (in CCOC(C)=O) of the same compound?
Answer: 313 nm

Question: What about the absorption maximum (in CCOCC) of the same compound?
Answer: 313 nm

Question: And the absorption maximum (in CN(C)C=O)?
Answer: 313 nm

Question: What about the absorption maximum (in Cc1ccccc1) of the same compound?
Answer: 316 nm

Question: What about the absorption maximum (in ClC=C(Cl)Cl) of the same compound?
Answer: 316 nm

Question: What about the absorption maximum (in ClCCl) of the same compound?
Answer: 313 nm
